GI50 and TGI data for seven compounds are collected here from PubChem BioAssay (NCI).

Among the test systems are NCI-H226 lung; COLO 205 colon; ACHN renal; RPMI-8226 leukemia; KM12 colon; MALME-3M melanoma; SF-539 CNS; MDA-MB-435; SK-OV-3 ovarian; HT29 colon.
Holding throughout (experiment): NCI anticancer screen, dose series, 48 h

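Exposure lasted 48 hours, with cells grown in 96-well plates and compounds tested at five concentrations. Abbreviation: GI50, concentration required for 50% inhibition of growth. TGI: total growth inhibition.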

With `O=C(Nc1cccc(-n2cc(-c3ccncc3)c(-c3cc(O)cc(Cl)c3)n2)c1)c1ccc(N2CCOCC2)c(C(F)(F)F)c1`, the GI50 in the experiment on NCI-H226 lung is 28.5 µM; in the experiment with COLO 205 colon, 17500 nM; in the experiment with ACHN renal, 1.84 µM; with RPMI-8226 leukemia, 398 nM; with KM12 colon, 1210 nM; in the experiment with MALME-3M melanoma, 1.38 µM. Besides, the GI50 in the experiment on SF-539 CNS is 1440 nM; with MDA-MB-435 it was 2050 nM; in the experiment on SK-OV-3 ovarian, 9.63 µM; in the experiment with HT29 colon, 3030 nM. Further, the TGI in the experiment on NCI-H226 lung was greater than 100 µM; with COLO 205 colon, 64.5 µM; with ACHN renal it was 29.3 µM; with RPMI-8226 leukemia, 2.31 µM; in the experiment with KM12 colon it was greater than 100 µM; with MALME-3M melanoma, 5.19 µM. Also, the TGI in the experiment with SF-539 CNS was 4.47 µM; in the experiment on MDA-MB-435, greater than 100 µM; in the experiment on SK-OV-3 ovarian it was greater than 100 µM; with HT29 colon, 11.3 µM.
Consider `CC1(C)N=C(N)N=C(N)N1c1ccc(CCC(=O)Nc2ccc(S(=O)(=O)F)cc2)cc1`, for which the GI50 in the experiment on NCI-H226 lung was 7.35 µM; with COLO 205 colon, 922 nM; in the experiment with ACHN renal, 7.34 µM; with RPMI-8226 leukemia, 1220 nM; in the experiment on KM12 colon it was 640 nM; in the experiment with MALME-3M melanoma, 10.9 µM. Also, the GI50 in the experiment with SF-539 CNS is 2940 nM; in the experiment on MDA-MB-435, 461 nM; in the experiment with SK-OV-3 ovarian, greater than 70.2 µM; with HT29 colon, 362 nM. For the same compound, the TGI with NCI-H226 lung, in the experiment with COLO 205 colon, in the experiment with ACHN renal, with RPMI-8226 leukemia, with KM12 colon and in the experiment on MALME-3M melanoma was greater than 100 µM in each case. Besides, the TGI in the experiment on SF-539 CNS was greater than 94.1 µM; in the experiment on MDA-MB-435 it was greater than 100 µM; in the experiment with SK-OV-3 ovarian it was greater than 100 µM; in the experiment with HT29 colon it was greater than 100 µM.
Consider `O=C1c2cccc(Oc3ccccc3)c2C(=O)c2cccc(Oc3ccccc3)c21`, for which the GI50 with NCI-H226 lung was greater than 100 µM; in the experiment on COLO 205 colon, greater than 100000 nM; in the experiment with ACHN renal, greater than 100 µM; with RPMI-8226 leukemia, greater than 100000 nM; with KM12 colon it was greater than 100000 nM; in the experiment with MALME-3M melanoma, greater than 100 µM. Also, the GI50 in the experiment on SF-539 CNS was 41500 nM; with MDA-MB-435, greater than 100000 nM; with SK-OV-3 ovarian it was 9.39 µM; in the experiment on HT29 colon, greater than 100000 nM. Further, the TGI with NCI-H226 lung, with COLO 205 colon, in the experiment with ACHN renal, with RPMI-8226 leukemia, with KM12 colon and in the experiment on MALME-3M melanoma was greater than 100 µM in each case. Moreover, the TGI in the experiment on SF-539 CNS, in the experiment with MDA-MB-435, in the experiment with SK-OV-3 ovarian and in the experiment with HT29 colon was greater than 100 µM throughout.
Turning to `COc1ccc2c(c1)C(=O)c1c-2c(Nc2ccccc2OC)nc2ccccc12`, the GI50 with NCI-H226 lung is greater than 100 µM; in the experiment on COLO 205 colon, greater than 100000 nM; with ACHN renal it was 89.2 µM; with RPMI-8226 leukemia it was greater than 100000 nM; with KM12 colon, greater than 100000 nM; in the experiment with MALME-3M melanoma it was greater than 100 µM. For the same compound, the GI50 with SF-539 CNS is greater than 100000 nM; in the experiment on MDA-MB-435, greater than 100000 nM; with SK-OV-3 ovarian, greater than 100 µM; in the experiment with HT29 colon, greater than 100000 nM. The TGI with NCI-H226 lung, in the experiment with COLO 205 colon, in the experiment with ACHN renal, in the experiment on RPMI-8226 leukemia, in the experiment on KM12 colon and in the experiment on MALME-3M melanoma was greater than 100 µM throughout. The TGI in the experiment on SF-539 CNS, with MDA-MB-435, with SK-OV-3 ovarian and in the experiment with HT29 colon was greater than 100 µM in each case.
On to `Nc1ncc(Cc2ccc3c(c2)OCO3)c(N)n1`, for which the TGI in the experiment with NCI-H226 lung, with COLO 205 colon, in the experiment on ACHN renal, in the experiment with RPMI-8226 leukemia, with KM12 colon and with MALME-3M melanoma was greater than 100 µM in each case. For the same compound, the TGI with SF-539 CNS, in the experiment on MDA-MB-435, with SK-OV-3 ovarian and in the experiment with HT29 colon was greater than 100 µM each time.
As for `CNC(=O)c1ncccc1Nc1nc(Nc2cc3c(cc2OC)CCCN3C(=O)CN(C)C)nc2[nH]ccc12`, the GI50 with NCI-H226 lung was 1.91 µM; with COLO 205 colon, 127 nM; with ACHN renal, 3.23 µM; in the experiment with RPMI-8226 leukemia, 842 nM; in the experiment on KM12 colon, 728 nM; in the experiment with MALME-3M melanoma, 3.65 µM. The GI50 in the experiment on SF-539 CNS is 1570 nM; in the experiment with MDA-MB-435 it was 244 nM; with SK-OV-3 ovarian, 1.67 µM; in the experiment with HT29 colon, 49.1 nM. The TGI in the experiment on NCI-H226 lung came to 5.78 µM; with COLO 205 colon, 1.18 µM; with ACHN renal, 6.72 µM; in the experiment on RPMI-8226 leukemia, 3.89 µM; in the experiment with KM12 colon it was 3.04 µM; in the experiment on MALME-3M melanoma, 7.84 µM. Besides, the TGI was 5.13 µM in the experiment on SF-539 CNS, 1.78 µM in the experiment with MDA-MB-435, 5.86 µM in the experiment with SK-OV-3 ovarian and 1.25 µM with HT29 colon.
As to `COc1ccc2c(N)ncc(C#Cc3cc(C(=O)Nc4ccc(CN5CCN(C)CC5)c(C(F)(F)F)c4)cnc3C)c2c1`, the GI50 in the experiment with NCI-H226 lung is 1.27 µM; in the experiment with COLO 205 colon, 568 nM; in the experiment on ACHN renal, 0.436 µM; in the experiment on RPMI-8226 leukemia, 775 nM; in the experiment on KM12 colon, 79 nM; with MALME-3M melanoma, 0.322 µM. For the same compound, the GI50 is 597 nM in the experiment on SF-539 CNS, 647 nM with MDA-MB-435, 1.7 µM in the experiment on SK-OV-3 ovarian and 194 nM with HT29 colon. For the same compound, the TGI in the experiment on NCI-H226 lung stood at 9.5 µM; with COLO 205 colon, 4.48 µM; in the experiment on ACHN renal it was 1.15 µM; in the experiment with RPMI-8226 leukemia it was 2.25 µM; with KM12 colon it was 2.64 µM; with MALME-3M melanoma, 1.16 µM. The TGI is 1.12 µM with SF-539 CNS, 3.1 µM with MDA-MB-435, 15 µM with SK-OV-3 ovarian and 0.876 µM in the experiment with HT29 colon.
